{"source": "paper PMC5316407", "about": "“In vivo imaging of systemic transport and elimination of xenobiotics and endogenous molecules in mice” (Archives of Toxicology, 2016)", "format_in_all_cases": "in vivo, mouse", "key": {"[1]": {"assay": "Intravital two-photon imaging of hepatic transport after tail vein injection", "conditions": "for Half-life: liver", "protocol": "(§1) In vivo recordings were acquired using a custom modified inverted LSM MP7 (Zeiss, Jena, Germany) provided with a two-photon Chameleon Ultra II laser with a tuning range from 680 to 1080 nm and a maximum power of approximately 3.5 W at 800 nm. […] Images were acquired with an LD C-Apochromat 40×/1.1 water immersion objective. The temperature of the specimen was controlled with a matt coated incubation chamber (Solent Scientific, Segensworth, UK).\n(§2) For in vivo imaging, 6- to 10-week-old male mice were initially anaesthetized with an intraperitoneal injection of ketamine (64 mg/kg), xylazine (7.2 mg/kg), acepromazine (1.7 mg/kg) and buprenorphine (0.08 mg/kg). […] For liver preparation, the abdominal skin was removed and a small midline incision below the sternum was made with surgical scissors. Subsequently, the falciform ligament was cautiously cut in order to dissociate the liver. […] The cover slip was put in a custom-made image platform from Plexiglas and fit into the stage of the microscope. The exposed liver was then covered with saline-soaked gauze. The temperature control of the incubation chamber was set at 36 °C. The quality of mouse preparation was verified by checking the breathing rate of the mouse and by the regular blood flow in the observed region. For the preparation of the kidney, the mouse was placed on its right side and a small incision made in the left flank region. The convex side of the left kidney was exposed via gentle pressure on the abdominal wall. In order to avoid dryness, the exposed kidney was covered with saline-moistened gauze during imaging. For intestine imaging, an incision was made on the right side of the abdominal wall. The intestine was gently pulled out using a moistened cotton-tipped applicator. To reduce peristalsis, the intestine was incubated in a 1% atropine sulfate bath for 10 min. Subsequently, the intestine was placed in a glass bottom microwell dishes (MatTek corporation, MA, USA) containing 0.5% atropine sulfate bath during the entire recording period. In case of recordings exceeding 1 h, the mice were kept on maintenance anesthesia via a respiratory mask using an evaporator (IAS3801, FMI GmbH, Seeheim-Jugenheim, Germany) with 1–2% isoflurane and a subcutaneous injection of 0.5 ml saline was given.\n(§3) Fluorescent markers or fluorescently labeled antibodies were injected via the tail vein before surgery or during recording via lateral tail vein catheters (SAI-infusion, IL, USA). […] All injected antibodies including anti-mouse CD11b, anti-mouse F4/80, anti-mouse NK1.1 and anti-mouse Ly6G (eBioscience, CA, USA) were phycoerythrin conjugated and administered in 100 µl PBS.\n(§4) Recorded videos were quantified with the Zen software (Zeiss). Fluorescence intensity was quantified in defined regions of interest.\n(§5) Pharmacokinetic analyses were performed with the MoBi® Toolbox for MATLAB (version 6.0.3; Bayer Technology Services GmbH, Leverkusen, Germany). PK-Sim® and MoBi® are freely available for non-commercial academic use."}, "[2]": {"assay": "Intravital two-photon imaging of glomerular filtration and tubular transport in the kidney", "conditions": "for Tmax: individual renal tubule; for Half-life: kidney", "protocol": "as §1, §2, §3, §4, §5"}, "[3]": {"assay": "Intravital two-photon imaging of intestinal transport (duodenum, capillaries to lacteal)", "protocol": "as §1\nas §2, with “Subsequently, the intestine was placed in a glass bottom microwell dishes (MatTek corporation, MA, USA) containing 0.5% atropine sulfate bath during the entire recording period. In case of recordings exceeding 1 h, the mice were kept on maintenance anesthesia via a respiratory mask using an evaporator (IAS3801, FMI GmbH, Seeheim-Jugenheim, Germany) with 1–2% isoflurane and a subcutaneous injection of 0.5 ml saline was given.” left out\nRecorded videos were quantified with the Zen software (Zeiss). Fluorescence intensity was quantified in defined regions of interest. […]"}}, "note": "Values joined by “and” are separate entries in the source; they are usually repeats but may differ in a detail not shown here. Equal values may be shown once. “Also recorded” adds a separate entry of the source."}
{"compound": "CC(CCC(=O)NC(CCCCNC(=S)Nc1ccc(-c2c3ccc(=O)cc-3oc3cc(O)ccc23)c(C(=O)O)c1)C(=O)O)C1CCC2C3C(O)CC4CC(O)CCC4(C)C3CC(O)C12C", "note": "(stereo not shown) [CLF, cholyl-lysyl-fluorescein]", "values": [{"measurement": "Time to maximum homogenous signal in the cytosol of the hepatocytes", "setting": "[1]; after intravenous injection of 2.5 mg/kg", "result": "~5", "unit": "min"}, {"measurement": "Enrichment in the LSEC/space of Dissé", "setting": "[1]; after tail vein injection", "result": "transient enrichment"}, {"measurement": "Half-life", "setting": "[1]; LSEC/Dissé space", "result": 13.46, "unit": "min"}, {"measurement": "Half-life", "setting": "[1]; hepatocytes, nd^a = not detectable due to transportation in vesicles", "result": 34.17, "unit": "min"}, {"measurement": "Half-life", "setting": "[1]; sinusoids, fluorescence intensity after tail vein injection (CLF 2.5 mg/kg, dextran 30 mg/kg)", "result": "1.9 min and 1.89 min"}, {"measurement": "Appearance in the liver sinusoids after tail vein injection", "setting": "[1]; time after tail vein injection", "result": "approximately 15 s"}, {"measurement": "Tmax", "setting": "[2]; Fig. 7, Tubule: 1", "result": 0.38, "unit": "min"}, {"measurement": "Tmax", "setting": "[2]; Fig. 7, Tubule: 2", "result": 0.38, "unit": "min"}, {"measurement": "Tmax", "setting": "[2]; Fig. 7, Tubule: 3", "result": 0.40, "unit": "min"}, {"measurement": "Tmax", "setting": "[2]; Fig. 7, Tubule: 4", "result": 0.75, "unit": "min"}, {"measurement": "Tmax", "setting": "[2]; Fig. 7, Tubule: 5", "result": 0.45, "unit": "min"}, {"measurement": "Tmax", "setting": "[2]; Fig. 7, Tubule: 6", "result": 0.35, "unit": "min"}, {"measurement": "Tmax", "setting": "[2]; Fig. 7, Tubule: 7", "result": 3.22, "unit": "min"}, {"measurement": "Tmax", "setting": "[2]; Fig. 7, Tubule: 8", "result": 2.82, "unit": "min"}, {"measurement": "Tmax", "setting": "[2]; Fig. 7, Tubule: 9", "result": 3.34, "unit": "min"}, {"measurement": "Tmax", "setting": "[2]; Fig. 7, Tubule: 10", "result": 3.34, "unit": "min"}, {"measurement": "Tmax", "setting": "[2]; Fig. 7, Tubule: 11", "result": 0.40, "unit": "min"}, {"measurement": "Tmax", "setting": "[2]; Fig. 7, Tubule: 12", "result": 0.50, "unit": "min"}, {"measurement": "Tmax", "setting": "[2]; Fig. 7, Tubule: 13", "result": 3.24, "unit": "min"}, {"measurement": "Tmax", "setting": "[2]; Fig. 7, Tubule: 14", "result": 0.37, "unit": "min"}, {"measurement": "Tmax", "setting": "[2]; Fig. 7, Tubule: 15", "result": 3.19, "unit": "min"}, {"measurement": "Half-life", "setting": "[2]; Bowman's space", "result": 2.19, "unit": "min"}, {"measurement": "Half-life", "setting": "[2]; glomerular capillaries", "result": "2.3 min and 2.33 min"}, {"measurement": "Half-life", "setting": "[2]; proximal tubule", "result": 4.88, "unit": "min"}, {"measurement": "Time to maximum (T max) fluorescence, distal tubules", "setting": "[2]; tubular lumina, range over imaged tubules", "result": "2.82 to 3.34", "unit": "min"}, {"measurement": "Transfer from intestinal blood capillaries into lymphatic vessels (lacteals), blood-lacteal barrier", "setting": "[3]; after intravenous injection", "result": "found in traces in the lymphatic vessels; also recorded: virtually impermeable"}, {"measurement": "Transport from intestinal capillaries into intestinal crypt cells and secretion into the intestinal lumen", "setting": "[3]; after intravenous injection", "result": "No transport"}, {"measurement": "Half-life", "setting": "[3]; intestine, blood vessels", "result": 1.45, "unit": "min"}]}
